From ChEMBL document CHEMBL3991944, “Enantiomers of spiro-oxindole compounds and their uses as therapeutic agents” (2013)
Converted amounts (≈) assume the structure as drawn. The source made the active and inactive calls.

Key:
[1] = Solubility of the compound in propylene glycol; format: physicochemical
[2] = Solubility of the compound in tween 80; format: physicochemical
[3] = Solubility of the compound in capryol 90; format: physicochemical
[4] = Solubility of the compound in 60:40 of labrasol/PEG 400; format: physicochemical
Rattus norvegicus [5] = experiment: Analgesic activity in rat model of chronic constriction injury-induced neuropathic pain assessed as reversal of pain response at 2% (w/v) administered topically as ointment measured upto 1 hr by electrovonfrey anesthesiometry; format: functional
[6] = Solubility of the compound in 60:40 of labrasol/capryol 90; format: physicochemical
[7] = molecular target: Sodium channel protein type 9 subunit alpha (Homo sapiens) (UniProt Q15858); details: HEK293
[8] = Solubility of the compound in 60:40 of labrasol/transcutol; format: physicochemical
[9] = Solubility of the compound in labrasol; format: physicochemical
[10] = Solubility of the compound in PEG 400; format: physicochemical
Homo sapiens [11] = species on record: Homo sapiens; experiment: Toxicity in human assessed as increase in discomfort at 0.1% compound solution for 4 consecutive days during phase-1 clinical trial
Homo sapiens [12] = experiment: Toxicity in human assessed as decrease in skin irritation at 4 to 8% (w/w) administered topically as ointment for 21 consecutive days during phase-1 clinical trial; details: topical_or_ocular
Homo sapiens [13] = experiment: Toxicity in human assessed as decrease in skin irritation at 4 to 8% (w/w) administered topically as ointment for 21 consecutive days measured 7 days post last dose during phase-1 clinical trial; details: topical_or_ocular, 168 h
Homo sapiens [14] = experiment: Analgesic activity in human assessed as dental pain relief at 500 mg administered as single dose measured 4 to 12 hrs post dose; format: functional
Homo sapiens [15] = experiment: Toxicity in human assessed as change in physical appearance at 4 to 8% (w/w) administered topically as ointment for 21 consecutive days during phase-1 clinical trial; details: topical_or_ocular
Homo sapiens [16] = experiment: Toxicity in human assessed as change in pulse rate at 4 to 8% (w/w) administered topically as ointment for 21 consecutive days during phase-1 clinical trial; details: topical_or_ocular
Rattus norvegicus [17] = experiment: Analgesic activity in rat model of CFA-induced chronic inflammatory pain assessed as increase in Von Frey mechanical paw withdrawal threshold at 8% (w/v) administered topically by electrovonfrey anesthesiometry relative to baseline; format: functional
Homo sapiens [18] = experiment: Toxicity in human assessed as change in laboratory assessments at 4 to 8% (w/w) administered topically as ointment for 21 consecutive days during phase-1 clinical trial; details: topical_or_ocular
Homo sapiens [19] = experiment: Toxicity in human assessed as change in quiescent resting state at 4 to 8% (w/w) administered topically as ointment for 21 consecutive days during phase-1 clinical trial; details: topical_or_ocular
Homo sapiens [20] = experiment: Toxicity in human assessed as mortality at 4 to 8% (w/w) administered topically as ointment for 21 consecutive days during phase-1 clinical trial; details: topical_or_ocular
Homo sapiens [21] = experiment: Toxicity in human assessed as serious adverse events at 4 to 8% (w/w) administered topically as ointment for 21 consecutive days during phase-1 clinical trial; details: topical_or_ocular
Rattus norvegicus [22] = experiment: Analgesic activity in rat model of CFA-induced chronic inflammatory pain assessed as reduction in nociceptive threshold at 200 mg/kg, po by Von Frey filament assay; format: functional, organism-based
Homo sapiens [23] = experiment: Toxicity in human assessed as change in vital signs at 4 to 8% (w/w) administered topically as ointment for 21 consecutive days during phase-1 clinical trial; details: topical_or_ocular
Homo sapiens [24] = experiment: Toxicity in human assessed as change in QTc interval at 4 to 8% (w/w) administered topically as ointment for 21 consecutive days during phase-1 clinical trial; details: topical_or_ocular
Rattus norvegicus [25] = experiment: Drug level in rat model of CFA-induced chronic inflammatory pain assessed as high plasma concentration at 200 mg/kg, po […]; format: ADME, organism-based; details: in vivo

Sodium channel protein type 9 subunit alpha (Homo sapiens), sequence (Q15858 whole entry, looked up): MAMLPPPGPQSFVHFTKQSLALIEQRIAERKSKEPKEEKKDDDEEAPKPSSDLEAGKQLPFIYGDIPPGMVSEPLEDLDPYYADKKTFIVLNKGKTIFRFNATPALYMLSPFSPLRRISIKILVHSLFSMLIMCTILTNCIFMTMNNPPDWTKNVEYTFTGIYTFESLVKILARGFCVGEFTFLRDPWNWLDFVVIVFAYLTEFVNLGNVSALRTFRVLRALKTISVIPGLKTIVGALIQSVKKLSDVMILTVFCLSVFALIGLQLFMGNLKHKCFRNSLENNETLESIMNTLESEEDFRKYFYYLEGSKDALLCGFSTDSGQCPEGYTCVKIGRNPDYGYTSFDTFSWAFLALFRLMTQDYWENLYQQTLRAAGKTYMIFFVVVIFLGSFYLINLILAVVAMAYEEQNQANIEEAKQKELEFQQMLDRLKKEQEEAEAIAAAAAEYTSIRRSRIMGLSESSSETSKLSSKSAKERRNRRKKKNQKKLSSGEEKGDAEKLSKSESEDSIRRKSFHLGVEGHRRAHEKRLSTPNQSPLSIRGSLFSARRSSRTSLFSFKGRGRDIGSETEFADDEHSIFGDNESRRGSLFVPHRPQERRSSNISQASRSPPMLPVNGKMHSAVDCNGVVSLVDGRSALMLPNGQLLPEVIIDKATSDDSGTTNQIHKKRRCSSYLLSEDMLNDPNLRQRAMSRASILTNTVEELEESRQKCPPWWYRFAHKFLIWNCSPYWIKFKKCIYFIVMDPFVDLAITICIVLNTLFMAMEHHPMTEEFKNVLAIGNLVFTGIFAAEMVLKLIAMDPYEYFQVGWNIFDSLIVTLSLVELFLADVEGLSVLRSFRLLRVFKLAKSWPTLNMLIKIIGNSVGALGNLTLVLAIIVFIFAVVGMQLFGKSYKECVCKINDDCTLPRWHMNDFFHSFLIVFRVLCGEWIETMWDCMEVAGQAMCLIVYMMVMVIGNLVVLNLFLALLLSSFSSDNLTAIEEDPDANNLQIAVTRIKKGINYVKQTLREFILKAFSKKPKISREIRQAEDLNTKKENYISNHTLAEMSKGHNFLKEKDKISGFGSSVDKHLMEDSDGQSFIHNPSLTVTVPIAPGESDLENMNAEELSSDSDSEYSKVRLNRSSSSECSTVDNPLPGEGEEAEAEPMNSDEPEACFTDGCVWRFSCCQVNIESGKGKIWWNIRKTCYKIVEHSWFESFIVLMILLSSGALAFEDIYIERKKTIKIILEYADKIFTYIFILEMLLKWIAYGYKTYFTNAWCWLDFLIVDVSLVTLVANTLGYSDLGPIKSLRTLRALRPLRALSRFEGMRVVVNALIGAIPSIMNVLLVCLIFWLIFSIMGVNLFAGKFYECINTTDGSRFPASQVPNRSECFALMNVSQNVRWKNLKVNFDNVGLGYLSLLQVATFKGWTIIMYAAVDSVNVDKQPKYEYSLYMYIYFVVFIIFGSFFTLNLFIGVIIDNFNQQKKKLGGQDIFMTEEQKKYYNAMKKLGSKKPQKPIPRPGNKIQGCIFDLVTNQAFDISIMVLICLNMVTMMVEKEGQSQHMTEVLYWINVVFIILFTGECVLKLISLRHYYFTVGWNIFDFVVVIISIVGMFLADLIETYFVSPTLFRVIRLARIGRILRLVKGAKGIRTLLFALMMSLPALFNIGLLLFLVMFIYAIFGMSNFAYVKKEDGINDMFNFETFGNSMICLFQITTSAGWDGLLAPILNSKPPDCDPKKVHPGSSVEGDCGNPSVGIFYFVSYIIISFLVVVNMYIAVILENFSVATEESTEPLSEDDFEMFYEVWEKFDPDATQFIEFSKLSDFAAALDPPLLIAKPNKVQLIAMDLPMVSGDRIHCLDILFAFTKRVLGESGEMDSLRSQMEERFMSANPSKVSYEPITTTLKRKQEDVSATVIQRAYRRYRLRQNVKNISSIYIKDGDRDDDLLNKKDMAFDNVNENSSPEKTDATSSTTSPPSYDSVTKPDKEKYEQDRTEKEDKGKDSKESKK

SMILES	solubility [2] [mg/mL]	solubility [3] [mg/mL]	solubility [4] [mg/mL]	Activity (Rattus norvegicus [5])	solubility [6] [mg/mL]	Kr [7] [µM]	solubility [8] [mg/mL]	solubility [9] [mg/mL]	solubility [10] [mg/mL]	Activity (Rattus norvegicus [22])	other results
O=C1N(Cc2ccc(C(F)(F)F)o2)c2ccccc2C12COc1cc3c(cc12)OCO3 (configuration not stated)	64 (≈ 149 mM)	18.1 (≈ 42.2 mM)	70.4 (≈ 164 mM)	Active	44.4 (≈ 103 mM)	> 10	74.2 (≈ 173 mM)	72.5 (≈ 169 mM)	< 50		solubility [1]: 2.7 mg/mL (≈ 6.29 mM)
CCCCCCCCCCCCOS(=O)(=O)[O-].[Na+] [SODIUM LAURYL SULFATE]											Activity (Homo sapiens [11]): Toxic
O=C1N(Cc2ccc(C(F)(F)F)o2)c2ccccc2[C@]12COc1cc3c(cc12)OCO3 [FUNAPIDE]	> 123	96 (≈ 224 mM)	182 (≈ 424 mM)	Active	191 (≈ 445 mM)	> 10	186 (≈ 433 mM)	231 (≈ 538 mM)	> 55	Active	Activity (Homo sapiens [12]): Non-Toxic; Activity (Homo sapiens [13]): Non-Toxic; Activity (Homo sapiens [14]): Active; Activity (Homo sapiens [15]): Non-Toxic; Activity (Homo sapiens [16]): Non-Toxic; Activity (Rattus norvegicus [17]): 45.06 - 45.1%; Activity (Homo sapiens [18]): Non-Toxic; Activity (Homo sapiens [19]): Non-Toxic; Activity (Homo sapiens [20]): Non-Toxic; Activity (Homo sapiens [21]): Non-Toxic; Activity (Homo sapiens [23]): Non-Toxic; Activity (Homo sapiens [24]): Non-Toxic
O=C1N(Cc2ccc(C(F)(F)F)o2)c2ccccc2[C@@]12COc1cc3c(cc12)OCO3				inactive		> 10				Active	Drug uptake (Rattus norvegicus [25]): Active
